Earlier results in PubChem BioAssay AID1259409 (Chemical Carcinogenesis Research Information System (CCRIS), 2018).

System: rodent chemically induced tumor inhibition, incidence and multiplicity
Test: CCRIS tumor inhibitor studies

| SMILES | tumour outcome (control, treated, inhibition, significance) (Carcinogen: 1,2-DIMETHYLHYDRAZINE, 540-73-8, Dose [Inhibitor]: 0, 600 MG/L IN DRINKING WATER FOR DURATION OF STUDY BEGINNING 7 D PRIOR TO CARCINOGEN TREATMENT (STUDY DURATION: 8 MO), Route [Inhibitor]: ORAL, Species: RAT, Strain/Sex: BD6/MALE, Target Tissue: Type of Lesion: INTESTINE: TUMOR, Dose [Carcinogen]: 20 MG/KG BW 1/WK FOR 20 WK, Promoter: NONE USED) | tumour outcome (control, treated, inhibition, significance) (Carcinogen: 4-(METHYLNITROSAMINO)-1-(3-PYRIDLY)-1-BUTANONE [64091-91-4], Dose [Inhibitor]: 2.5 MG/KG BW 3X/WK FOR 31 WK BEGINNING 1 WK POST LAST CARCINOGEN DOSE (STUDY DURATION: 52 WK), Route [Inhibitor]: SUBCUTANEOUS, Species: HAMSTER, Strain/Sex: SYRIAN/MALE, Target Tissue: Type of Lesion: LUNG: TUMOR, Dose [Carcinogen]: 10 MG/KG BW 3X/WK FOR 20 WK (STUDY DURATION: 52 WK), Promoter: NONE) | tumour outcome (control, treated, inhibition, significance) (Carcinogen: 4-(METHYLNITROSAMINO)-1-(3-PYRIDLY)-1-BUTANONE [64091-91-4], Dose [Inhibitor]: 2.5 MG/KG BW 3X/WK FOR 31 WK BEGINNING 1 WK POST LAST CARCINOGEN DOSE (STUDY DURATION: 52 WK), Route [Inhibitor]: SUBCUTANEOUS, Species: HAMSTER, Strain/Sex: SYRIAN/MALE, Target Tissue: Type of Lesion: NASAL CAVITY: TUMOR, Dose [Carcinogen]: 10 MG/KG BW 3X/WK FOR 20 WK (STUDY DURATION: 52 WK), Promoter: NONE) | tumour outcome (control, treated, inhibition, significance) (Carcinogen: DIETHYLNITROSAMINE, 55-18-5, Dose [Inhibitor]: 0, 600 MG/L IN DRINKING WATER BEGINNING 3 D PRIOR TO FIRST CARCINOGEN DOSE AND CONTINUING TO 14 D POST LAST CARCINOGEN D, Route [Inhibitor]: ORAL, Species: RAT, Strain/Sex: BD6/FEMALE, Target Tissue: Type of Lesion: ESOPHAGUS: TUMOR, Dose [Carcinogen]: 80 MG/KG BW 1/WK FOR 8 WK, Promoter: NONE USED) | tumour outcome (control, treated, inhibition, significance) (Carcinogen: DIETHYLNITROSAMINE, 55-18-5, Dose [Inhibitor]: 0, 600 MG/L IN DRINKING WATER BEGINNING 3 D PRIOR TO FIRST CARCINOGEN DOSE AND CONTINUING TO 14 D POST LAST CARCINOGEN D, Route [Inhibitor]: ORAL, Species: RAT, Strain/Sex: BD6/FEMALE, Target Tissue: Type of Lesion: LIVER: TUMOR, Dose [Carcinogen]: 80 MG/KG BW 1/WK FOR 8 WK, Promoter: NONE USED) | tumour outcome (control, treated, inhibition, significance) (Carcinogen: DIETHYLNITROSAMINE, 55-18-5, Dose [Inhibitor]: 0, 600 MG/L IN DRINKING WATER FOR DURATION OF STUDY BEGINNING 4 D POST CARCINOGEN TREATMENT (STUDY DURATION: 6 MO), Route [Inhibitor]: ORAL, Species: RAT, Strain/Sex: BD6/FEMALE, Target Tissue: Type of Lesion: ESOPHAGUS: TUMOR, Dose [Carcinogen]: 80 MG/KG BW 1/WK FOR 8 WK, Promoter: NONE USED) | tumour outcome (control, treated, inhibition, significance) (Carcinogen: DIETHYLNITROSAMINE, 55-18-5, Dose [Inhibitor]: 0, 600 MG/L IN DRINKING WATER FOR DURATION OF STUDY BEGINNING 4 D POST CARCINOGEN TREATMENT (STUDY DURATION: 6 MO), Route [Inhibitor]: ORAL, Species: RAT, Strain/Sex: BD6/FEMALE, Target Tissue: Type of Lesion: LIVER: TUMOR, Dose [Carcinogen]: 80 MG/KG BW 1/WK FOR 8 WK, Promoter: NONE USED) | tumour outcome (control, treated, inhibition, significance) (Carcinogen: DIETHYLNITROSAMINE, 55-18-5, Dose [Inhibitor]: 0, 600 MG/L IN DRINKING WATER FOR DURATION OF STUDY BEGINNING 7 D PRIOR TO CARCINOGEN TREATMENT (STUDY DURATION: 6 MO), Route [Inhibitor]: ORAL, Species: RAT, Strain/Sex: BD6/FEMALE, Target Tissue: Type of Lesion: ESOPHAGUS: TUMOR, Dose [Carcinogen]: 80 MG/KG BW 1/WK FOR 8 WK, Promoter: NONE USED) | tumour outcome (control, treated, inhibition, significance) (Carcinogen: DIETHYLNITROSAMINE, 55-18-5, Dose [Inhibitor]: 0, 600 MG/L IN DRINKING WATER FOR DURATION OF STUDY BEGINNING 7 D PRIOR TO CARCINOGEN TREATMENT (STUDY DURATION: 6 MO), Route [Inhibitor]: ORAL, Species: RAT, Strain/Sex: BD6/FEMALE, Target Tissue: Type of Lesion: LIVER: TUMOR, Dose [Carcinogen]: 80 MG/KG BW 1/WK FOR 8 WK, Promoter: NONE USED) | tumour outcome (control, treated, inhibition, significance) (Carcinogen: N-ETHYL-N-NITROSOUREA, 759-73-9, Dose [Inhibitor]: 0, 1000 MG/KG IN DIET FOR 12 MO ADMINISTERED TO OFFSPRING OF CARCINOGEN-TREATED MOTHERS (STUDY DURATION: 12 MO), Route [Inhibitor]: ORAL, Species: RAT, Strain/Sex: ALBINO/MALE, FEMALE, Target Tissue: Type of Lesion: BRAIN: TUMOR, Dose [Carcinogen]: 75 MG/KG BW ADMINISTERED INTRAPERITONEALLY TO MOTHERS 21 D POST CONCEPTION, Promoter: NONE USED) | tumour outcome (control, treated, inhibition, significance) (Carcinogen: N-ETHYL-N-NITROSOUREA, 759-73-9, Dose [Inhibitor]: 0, 1000 MG/KG IN DIET FOR 12 MO ADMINISTERED TO OFFSPRING OF CARCINOGEN-TREATED MOTHERS (STUDY DURATION: 12 MO), Route [Inhibitor]: ORAL, Species: RAT, Strain/Sex: ALBINO/MALE, FEMALE, Target Tissue: Type of Lesion: KIDNEY: TUMOR, Dose [Carcinogen]: 75 MG/KG BW ADMINISTERED INTRAPERITONEALLY TO MOTHERS 21 D POST CONCEPTION, Promoter: NONE USED) | tumour outcome (control, treated, inhibition, significance) (Carcinogen: N-ETHYL-N-NITROSOUREA, 759-73-9, Dose [Inhibitor]: 0, 1000 MG/KG IN DIET FOR 12 MO ADMINISTERED TO OFFSPRING OF CARCINOGEN-TREATED MOTHERS (STUDY DURATION: 12 MO), Route [Inhibitor]: ORAL, Species: RAT, Strain/Sex: ALBINO/MALE, FEMALE, Target Tissue: Type of Lesion: PERIPHERAL NERVES: TUMOR, Dose [Carcinogen]: 75 MG/KG BW ADMINISTERED INTRAPERITONEALLY TO MOTHERS 21 D POST CONCEPTION, Promoter: NONE USED) | tumour outcome (control, treated, inhibition, significance) (Carcinogen: N-ETHYL-N-NITROSOUREA, 759-73-9, Dose [Inhibitor]: 0, 1000 MG/KG IN DIET FOR 12 MO ADMINISTERED TO OFFSPRING OF CARCINOGEN-TREATED MOTHERS (STUDY DURATION: 12 MO), Route [Inhibitor]: ORAL, Species: RAT, Strain/Sex: ALBINO/MALE, FEMALE, Target Tissue: Type of Lesion: SPINAL CHORD: TUMOR, Dose [Carcinogen]: 75 MG/KG BW ADMINISTERED INTRAPERITONEALLY TO MOTHERS 21 D POST CONCEPTION, Promoter: NONE USED) | tumour outcome (control, treated, inhibition, significance) (Carcinogen: URETHANE, 51-79-6, Dose [Inhibitor]: 0.05 UMOL/G BW GIVEN AT 6 HR INTERVALS DURING PERIOD OF 0 TO 36 HR AFTER CARCINOGEN TREATMENT FOLLOWED BY 5 MO OBSERVATI, Route [Inhibitor]: INTRAPERITONEAL, Species: MOUSE, Strain/Sex: ICR/FEMALE, Target Tissue: Type of Lesion: LUNG: PAPILLARY ADENOMA, Dose [Carcinogen]: 0.1 MG/G BW ONCE, Promoter: NONE USED) | tumour outcome (control, treated, inhibition, significance) (Carcinogen: N-NITROSOBIS(2-HYDROXYPROPYL)AMINE, 53609-64-6, Dose [Inhibitor]: 0, 0.02% IN DIET FOR 8 WK BEGINNING POST CARCINOGEN TREATMENT (STUDY DURATION: 20 WK), Route [Inhibitor]: ORAL, Species: RAT, Strain/Sex: WISTAR/MALE, Target Tissue: Type of Lesion: LUNG: ADENOCARCINOMA, Dose [Carcinogen]: 2,000 PPM IN DRINKING WATER FOR 12 WK, Promoter: NONE) | tumour outcome (control, treated, inhibition, significance) (Carcinogen: N-NITROSOBIS(2-HYDROXYPROPYL)AMINE, 53609-64-6, Dose [Inhibitor]: 0, 0.02% IN DIET FOR 8 WK BEGINNING POST CARCINOGEN TREATMENT (STUDY DURATION: 20 WK), Route [Inhibitor]: ORAL, Species: RAT, Strain/Sex: WISTAR/MALE, Target Tissue: Type of Lesion: LUNG: ADENOMA, Dose [Carcinogen]: 2,000 PPM IN DRINKING WATER FOR 12 WK, Promoter: NONE) | tumour outcome (control, treated, inhibition, significance) (Carcinogen: N-NITROSOBIS(2-HYDROXYPROPYL)AMINE, 53609-64-6, Dose [Inhibitor]: 0, 0.02% IN DIET FOR 8 WK BEGINNING POST CARCINOGEN TREATMENT (STUDY DURATION: 20 WK), Route [Inhibitor]: ORAL, Species: RAT, Strain/Sex: WISTAR/MALE, Target Tissue: Type of Lesion: LUNG: SQUAMOUS CELL CARCINOMA, Dose [Carcinogen]: 2,000 PPM IN DRINKING WATER FOR 12 WK, Promoter: NONE) |
| --- | --- | --- | --- | --- | --- | --- | --- | --- | --- | --- | --- | --- | --- | --- | --- | --- | --- |
| Cn1c(=O)c2[nH]cnc2n(C)c1=O | 100%, 100%, 0%, not significant | 12/15 (80.0%), 15/15 (100.0%), -25%, not calculated | 4/15 (26.7%), 4/15 (26.7%), 0%, not calculated | 15%, 9%, 40%, not significant | 90%, 97%, -8%, not significant | 15%, 29%, -93%, not significant | 90%, 97%, -8%, not significant | 14%, 17%, -21%, not significant | 100%, 90%, 10%, not significant | 53/63 (84%), 21/41 (51%), 39%, p<0.05 | 23/63 (37%), 6/41 (15%), 59%, p<0.05 | 24/63 (38%), 5/41 (12%), 68%, p<0.05 | 17/63 (27%), 9/41 (22%), 19%, not significant | 31/59 (53%), 25/43 (58%), -9%, not significant |  |  |  |
| CC[C@H]1OC(=O)[C@H](C)[C@@H](O[C@H]2C[C@@](C)(OC)[C@@H](O)[C@H](C)O2)[C@H](C)[C@@H](O[C@@H]2O[C@H](C)C[C@H](N(C)C)[C@H]2O)[C@](C)(OC)C[C@@H](C)C(=O)[C@H](C)[C@@H](O)[C@]1(C)O |  |  |  |  |  |  |  |  |  |  |  |  |  |  | 60%, 38%, 37%, not calculated | 70%, 50%, 29%, not calculated | 20%, 13%, 35%, not calculated |
